Reference: US11339189B2, “DNA primase and gyrase inhibitors” (B. G. NEGEV TECHNOLOGIES AND APPLICATIONS LTD., AT …, priority 2016, dated 2022)

Tests used:
T7 DNA primase [1] = target: T1, T7 DNA primase (Escherichia phage T7, UniProt P03692); test: Fragment based screening by STD NMR spectroscopy; assay type: binding, bacteriophage T7; conditions: ranked by total change in intensity and number of affected peaks; Maybridge Ro3 library
T1 construct: T7 primase domain (residue: 1-271) was over-produced and purified using metal free buffers; made in house; host or cells: E. coli Bl21(DE3) containing pETg4P
Protocol: NMR experiments—Fragment Based Screening: T7 primase was screened against the Maybridge Ro3 Diversity Fragment Library containing 1000 compounds using STD spectroscopy. Samples for 1D ligand-observed NMR studies contained […] T7 primase in 50 mM phosphate buffer in D2O and 10 compounds, resulting in a total of 100 samples. NMR spectra were recorded on a Bruker Avance 500 MHz equipped with a TXO cryoprobe with Z gradient and a NMR-CASE sample changer at 298 K. Ligand binding was probed using a saturation transfer difference pulse program. Saturation was achieved using on-resonance irradiation at 0 ppm with a train of Wurst pulses for a total saturation time of 1.5 s. Off resonance irradiation was centered at 40 ppm. Spectra were acquired with a sweep width of 8012.8 Hz, 8192 data points and 224 scans. Active compounds were identified by comparing the STD spectra with the corresponding reference spectra using the MestreNova software. Any compound with reduced peak intensities was considered a hit and ranked according to the percentage of intensity decrease and the number of affected peaks per compound.
Using the Maybridge Ro3 fragment library containing 1000 fragments, 100 NMR samples were prepared, each containing a mixture of 10 fragments and 50 μM T7 primase.
The 10 fragments were chosen to show minimal overlap of their 1H chemical shift to allow easy identification of the shifts. […]

[2] = target: T2, T7 DNA primase (primase domain of bacteriophage T7 gene 4 protein, residues 1-271) (Escherichia phage T7, UniProt P03692); test: Oligoribonucleotide synthesis assay: template-directed diribonucleotide (pppAC) synthesis catalyzed by the T7 DNA primase domain (FIG. 5); assay type: biochemical; conditions: T7 gene 4 primase domain (residues 1-271, expressed in E. coli BL21(DE3)); DNA template with recognition site 5'-GTC-3' (5'-GGGTCA10-3'), ATP, [α-32P]-CTP, 10 mM MnCl2, pH 7.5; gel autoradiography of pppAC; four parameter logistic fit; parenthesised figure not explained
T2 construct: T7 primase domain (residue: 1-271) was over-produced and purified; made in house; host or cells: E. coli BL21(DE3), plasmid pETg4P
From the text: FIGS. 5A-C present a scheme summarizing the assay in which the DNA template containing the primase recognition site 5′-GTCA10-3′ enables the synthesis of only diribonucleotides pppAC (FIG. 5A), and gel bands and quantification of gel bands representing the reaction products (5′-pppAC-3′) (FIG. 5B and FIG. 5C, respectively).
Protein expression and purification: Proteins and Reagents. All chemical reagents were of molecular biology grade (Sigma); ATP and CTP (Roche Molecular Biochemicals). dNTPs and ddNTPs were purchased from USB Corp. Premade gels (10-20% linear gradients) used for SDS-PAGE and Precision Plus Protein prestained standards were purchased from BioRad (Hercules, Calif.). T7 primase domain (residue: 1-271) was over-produced and purified using metal free buffers as previously described in Mol Cell 11, 1349-60 (2003). T7 gp5 and E. Coli trx were overproduced and purified as described in J. Biol. Chem. 262, 16224-32 (1987). Gp4 was overproduced and purified as described in J. Biol. Chem. 272, 18425-33 (1997). M13 ssDNA was prepared as described in J. Biol. Chem. 261, 15208-16 (1986). [α-^32P]-CTP (800 Ci/mmol) was purchased from Perkin Elmer.
Oligoribonucleotide Synthesis Assay: Oligoribonucleotides were synthesized by DNA primase, product was measured as described in J Biol Chem 272, 5943-51 (1997) and in J Biol Chem 266, 23240-50 (1991), in reactions containing various concentrations (1.1, 3.3, and 10 μM) of gene 4 primase domain. […]
(§1) Small molecules that inhibit primase activity: to catalyze the synthesis of short RNA primers, T7 primase requires DNA with a primase recognition site, ATP and CTP, and a buffer containing divalent metal ions. […] The radioactively labeled oligoribonucleotides were separated on a denaturing polyacrylamide gel, and radioactivity was measured on an autoradiogram. The amounts of RNA-primed DNA syntheses were determined by measuring the incorporation of dTMP (see Methods). […]

[3] = target: T3, T7 primase (gp4) with gp5/trx (Escherichia phage T7, UniProt P03692); test: Primase dependent DNA synthesis (gp4 primers extended by gp5/trx on M13 ssDNA); assay type: biochemical, bacteriophage T7; conditions: 350 μM of each small molecule, FIG. 4B
T3 construct: the helicase-primase (gene product 4, gp4, full-length) was run; made in house
Protocol: Primase dependent DNA synthesis: RNA primers made by gp4A were extended by gp5/trx. The reaction mixture contained 10 nM M13 ssDNA, 0.3 mM dNTPs, 0.1 μCi [α-^32P] dCTP, 20 nM gp5/trx, 200 nM monomeric gp4A, and 350 μM of each compound. The reaction was incubated for 45 min at 37° C. Reaction was terminated and amount of DNA synthesis was determined as described in DNA polymerase assay.
Small molecules that inhibit the concerted activity of primase and DNA polymerase: To evaluate the ability of the small molecule candidates to inhibit the primase-dependent replication of the lagging strand of bacteriophage DNA, an overall assay that involved the concerted activity of DNA polymerase (gene product 5 and E. coli thioredoxin, gp5/trx) and the helicase-primase (gene product 4, gp4, full-length) was run. In bacteriophage T7, lagging strand DNA synthesis involves interactions between gp5/trx and gp4. Full-length gp4 is required for the synthesis of oligoribonucleotides to initiate the synthesis of Okazaki fragments.
To examine the effect of 350 μM of each small molecule on the synthesis of primers and their transfer to gp5/trx, M13 ssDNA for the synthesis of oligoribonucleotides by the primase and their extension by gp5/trx was used (FIG. 4b, inset). To initiate DNA synthesis, the primase must first synthesize tetraribonucleotides on the DNA and then transfer them to gp5/trx. In addition to the four dNTPs, ATP and CTP were also provided, and the primers that were synthesized included pppACCC, pppACAC, and pppACCA.
The Table in FIG. 6A presents the inhibitory effect of various small molecules on primase-dependent DNA synthesis mediated by gp5/trx and gene 4 helicase (gp4A). The standard reaction contained the ssM13 DNA template (10 nM), 0.3 mM dATP, dGTP, dCTP and [α-^32P] dTTP (0.1 mCi), 10 nM gp5/trx, 200 nM monomeric concentrations of […] and 250 μM of small molecule inhibitors. After incubation for 30 min at 37° C., the level of […] was determined based on the amount of [α-^32P] dTTP incorporated into DNA.

T7 DNA primase [4] = target: T1, T7 DNA primase; test: [1H,15N]-TROSY HSQC titration of labeled primase with compounds; assay type: binding, bacteriophage T7; conditions: compared to free T7 primase
Protocol: [^1H,^15N]-TROSY HSQC titration spectra of 15N,D T7 DNA primase with selected fragment molecules and compounds 1, 12, 13, 15, 17, ATP, and DNA were recorded at 25° C. on a Bruker DMX 800 MHz spectrometer equipped with TXI cryoprobes with Z gradient. Data were processed and analyzed using NMRPipe (Journal of Biomolecular NMR 6, 277-293 (1995)) and NMRView (Journal of Biomolecular Nmr 4, 603-614 (1994)).
Structural analysis of inhibitor-primase interactions: To characterize the binding of the compounds identified using FBVS, the [^15N, ^1H]-TROSY-HSQC spectra of ^15N- and D-labeled T7 primase in the presence of the selected lead compounds (FIGS. 7A-B) were measured. […] Relative to the initial scaffold alone, those shifts were more pronounced, which indicates stronger binding interactions. In addition, chemical shift perturbations upon the addition of DNA and ATP/CTP to the T7 primase domain confirmed that all three compounds bind to the active site. […] Compounds 12 and 15, whose polar dissolution values were the lowest from among the five inhibitors, were not able to achieve the concentrations needed for the protein-NMR experiments.

T7 primase domain = target: T4, T7 primase domain (Escherichia phage T7, UniProt P03692); test: Oligoribonucleotide (pppAC diribonucleotide) synthesis assay; assay type: biochemical, bacteriophage T7; conditions: pppAC synthesis by T7 primase domain; four parameter logistic fit
T4 construct: T7 primase domain (residue: 1-271) was over-produced and purified using metal free buffers; made in house; host or cells: E. coli Bl21(DE3) containing pETg4P
Protocol: Oligoribonucleotide Synthesis Assay: Oligoribonucleotides were synthesized by DNA primase, product was measured as described in J Biol Chem 272, 5943-51 (1997) and in J Biol Chem 266, 23240-50 (1991), in reactions containing various concentrations (1.1, 3.3, and 10 μM) of gene 4 primase domain. Standard 10 μL reaction contained 5 μM of DNA template (5′-GGGTCA10-3′), 200 μM ATP, 200 μM [α-^32P]-CTP, and primase domain in a buffer containing 40 mM Tris-HCl (pH 7.5), 10 mM MnCl2, 10 mM DTT, and 50 mM potassium glutamate. […]
as §1
The reaction conditions involve incubating the primase domain with an oligonucleotide containing a primase recognition sequence. […] After incubation, the radioactive products were analyzed by electrophoresis through 25% polyacrylamide gel containing 3 M urea and visualized using autoradiography.

[5] = Polar dissolution of inhibitors for protein-NMR experiments; assay type: physicochemical; conditions: among the five inhibitors

T3 sequence (P03692 whole entry): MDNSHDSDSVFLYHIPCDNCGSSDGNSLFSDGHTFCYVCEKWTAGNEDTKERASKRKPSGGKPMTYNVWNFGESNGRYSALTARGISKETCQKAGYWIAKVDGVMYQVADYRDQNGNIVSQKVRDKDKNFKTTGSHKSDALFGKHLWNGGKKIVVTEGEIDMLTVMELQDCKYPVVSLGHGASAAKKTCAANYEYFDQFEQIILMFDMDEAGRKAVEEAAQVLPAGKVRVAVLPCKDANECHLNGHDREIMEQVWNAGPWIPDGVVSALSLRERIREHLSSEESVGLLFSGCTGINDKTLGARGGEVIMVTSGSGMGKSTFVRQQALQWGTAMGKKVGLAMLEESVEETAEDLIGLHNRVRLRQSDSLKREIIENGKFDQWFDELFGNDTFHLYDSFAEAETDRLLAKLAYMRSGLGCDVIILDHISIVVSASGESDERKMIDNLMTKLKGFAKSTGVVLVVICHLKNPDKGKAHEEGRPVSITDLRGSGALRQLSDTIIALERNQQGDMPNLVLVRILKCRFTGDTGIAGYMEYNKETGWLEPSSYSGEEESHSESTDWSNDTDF
T2 sequence (P03692 1-271): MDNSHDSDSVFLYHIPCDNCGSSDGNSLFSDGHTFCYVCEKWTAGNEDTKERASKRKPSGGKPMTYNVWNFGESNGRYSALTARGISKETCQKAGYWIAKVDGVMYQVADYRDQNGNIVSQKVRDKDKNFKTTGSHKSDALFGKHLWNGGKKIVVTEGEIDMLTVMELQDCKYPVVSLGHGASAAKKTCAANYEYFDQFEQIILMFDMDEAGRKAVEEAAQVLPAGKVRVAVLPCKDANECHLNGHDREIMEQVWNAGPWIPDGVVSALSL
T1 sequence (P03692 1-271): as above
T4 sequence (P03692 1-271): as above

Structure (SMILES) | IC50 [2] [µM] | decrease of primase dependent DNA synthesis [3] | chemical shift perturbations of T7 primase upon compound addition (T7 DNA primase [4]) | other results
NC(=S)C1=Cc2ccccc2OC1 [2H-chromene-3-carbothioamide] | – | – | – | binding to T7 primase by STD spectroscopy (decrease in NMR peak intensities) (T7 DNA primase [1]): strongest binding
O=C1Cc2c([nH]c3ccc([N+](=O)[O-])cc23)-c2ccccc2N1 [Compound 12, 9-Nitro-7,12-dihydroindolo-[3,2-d][1]benzazepin-6(5)-one] | 109 | – | – | –
O=C(Nc1ccc2c(c1)OCO2)c1cc2cccc([N+](=O)[O-])c2[nH]1 [Compound 15, N-(1,3-benzodioxol-5-yl)-7-nitro-1H-indole-2-carboxamide] | 56.7 | – | – | –
O=C(O)c1cc2cccc([N+](=O)[O-])c2[nH]1 [Compound 17, 7-nitro-1H-indole-2-carboxylic acid] | 314 | – | – | –
O=C(O)/C=C/C1=Cc2cc(Cl)ccc2OC1 [compound 1, (2E)-3-(6-chloro-2H-chromen-3-yl)acrylic acid] | – | decreases by up to four-fold | significant chemical shift perturbations | –
O=C1Cc2c([nH]c3ccc([N+](=O)[O-])cc23)-c2ccccc2N1 [compound 12, 9-Nitro-7,12-dihydroindolo-[3,2-d][1]benzazepin-6(5)-one] | – | decreases by up to four-fold | – | Hill coefficient (T7 primase domain): highest value; polar dissolution values [5]: lowest
CCOC(=O)c1[nH]c2ccc([N+](=O)[O-])cc2c1CCC(=O)O [compound 13, 3-[2-(ethoxycarbonyl)-5-nitro-1H-indol-3-yl]propanoic acid] | – | decreases by up to four-fold | significant chemical shift perturbations | –
O=C(Nc1ccc2c(c1)OCO2)c1cc2cccc([N+](=O)[O-])c2[nH]1 [compound 15, N-(1,3-benzodioxol-5-yl)-7-nitro-1H-indole-2-carboxamide] | – | decreases by up to four-fold | – | polar dissolution values [5]: lowest
O=C(O)c1cc2cccc([N+](=O)[O-])c2[nH]1 [compound 17, 7-nitro-1H-indole-2-carboxylic acid] | – | decreases by up to four-fold | significant chemical shift perturbations | –
c1ccc2[nH]ccc2c1 [indole] | – | – | – | binding to T7 primase by STD spectroscopy (decrease in NMR peak intensities) (T7 DNA primase [1]): strongest binding
